Assay results published in patent US10905739B2, “Peptidomimetic macrocycles and formulations thereof” (AILERON THERAPEUTICS, INC., priority 2014, dated 2021).
Values after ≈ are worked out from the molar mass of the structure shown. Where two headings read alike, the source gives them in different places. Bridge positions count the residues as written; N and C are the ends. Square brackets hold non-standard residues; d marks the D form. Peptide text beside a SMILES is read from it. dPhe(4-CF3) = N[C@H](Cc1ccc(C(F)(F)F)cc1)C(=O)O; Phe(4-F) = N[C@@H](Cc1ccc(F)cc1)C(=O)O; R8 = C=CCCCCCC[C@@](C)(N)C(=O)O; S8 = C=CCCCCCC[C@](C)(N)C(=O)O; R5 = C=CCCC[C@@](C)(N)C(=O)O; hLeu = CC(C)CC[C@H](N)C(=O)O; S5 = C=CCCC[C@](C)(N)C(=O)O; Nle = CCCC[C@H](N)C(=O)O; Aib = CC(C)(N)C(=O)O

How the values were obtained:
SJSA-1 cells = assay: SJSA-1 sarcoma cell killing / cell viability; assay type: cell-based; details: 10% serum
MDM2 = MDM2 (Homo sapiens, UniProt Q00987); assay: MDM2 binding IC50/Ki (in vitro displacement, fluorescence polarization)
MDM2, sequence (Q00987 whole entry): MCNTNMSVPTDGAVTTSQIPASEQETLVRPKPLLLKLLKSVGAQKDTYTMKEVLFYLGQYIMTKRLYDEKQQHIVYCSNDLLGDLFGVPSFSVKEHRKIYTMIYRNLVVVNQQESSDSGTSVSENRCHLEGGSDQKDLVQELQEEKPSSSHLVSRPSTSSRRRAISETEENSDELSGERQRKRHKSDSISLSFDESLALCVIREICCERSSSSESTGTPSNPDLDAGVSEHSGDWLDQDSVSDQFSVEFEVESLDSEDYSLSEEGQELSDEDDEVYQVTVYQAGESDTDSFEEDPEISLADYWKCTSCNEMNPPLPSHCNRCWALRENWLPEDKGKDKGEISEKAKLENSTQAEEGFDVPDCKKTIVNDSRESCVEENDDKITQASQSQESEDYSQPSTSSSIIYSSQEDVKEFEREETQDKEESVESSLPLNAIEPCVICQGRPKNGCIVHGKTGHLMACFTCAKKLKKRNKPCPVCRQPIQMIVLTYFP

[1] = Aqueous solubility (turbidity of solution); assay type: physicochemical
Procedure: In some embodiments, the peptidomimetic macrocycle or pharmaceutically acceptable salt thereof is not precipitated in the formulation. In some embodiments, an aqueous solubility of the peptidomimetic macrocycle is determined by evaluating the turbidity of a solution comprising the peptidomimetic macrocycle. In some embodiments, the peptidomimetic macrocycle or pharmaceutically acceptable salt thereof has an amphipathicity that falls in a range that is optimal for cell permeability.
In some embodiments, a peptidomimetic macrocycle with enhanced cell penetrability can be prepared based on solubility of the polypeptide, for example if the prepared peptidomimetic macrocycle is determined to be soluble based on visual examination of the turbidity of a solution of the polypeptide.

[2] = test system: Influenza A Virus H1N1 California/07/2009; details: Virus California/07/2009
BCL-XL = BCL-XL (Homo sapiens, UniProt Q07817); assay: BCL-XL binding IC50
BCL-XL, sequence (Q07817 whole entry): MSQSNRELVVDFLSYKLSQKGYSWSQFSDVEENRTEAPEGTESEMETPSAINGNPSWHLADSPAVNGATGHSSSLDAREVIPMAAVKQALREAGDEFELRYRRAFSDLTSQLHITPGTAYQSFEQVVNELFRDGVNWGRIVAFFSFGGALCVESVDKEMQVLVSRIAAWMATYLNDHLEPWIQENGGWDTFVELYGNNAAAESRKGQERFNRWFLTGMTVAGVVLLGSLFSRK
From the text: In one aspect, the present invention provides novel peptidomimetic macrocycles that are useful in competitive binding assays to identify agents which bind to the natural ligand(s) of the proteins or peptides upon which the peptidomimetic macrocycles are modeled. For example, in the BH3/BCL-XL anti-apoptotic system labeled peptidomimetic macrocycles based on BH3 can be used in a BCL-XL binding assay along with small molecules that competitively bind to BCL-XL. Competitive binding studies allow for rapid in vitro evaluation and determination of drug candidates specific for the BH3/BCL-XL system. The invention further provides for the generation of antibodies against the peptidomimetic macrocycles. In some embodiments, these antibodies specifically bind both the peptidomimetic macrocycle and the BH3 peptidomimetic precursors upon which the peptidomimetic macrocycles are derived. Such antibodies, for example, disrupt the BH3/BCL-XL systems, respectively.

Raji Cell = details: read-out: Raji Cell Viability EC50; 5% serum, 48 hr
Procedure: The efficacy of certain peptidomimetic macrocycles is determined, for example, in cell-based killing assays using a variety of tumorigenic and non-tumorigenic cell lines and primary cells derived from human or mouse cell populations. […] Several standard assays that measure cell viability are commercially available and are optionally used to assess the efficacy of the peptidomimetic macrocycles. In addition, assays that measure Annexin V and caspase activation are optionally used to assess whether the peptidomimetic macrocycles kill cells by activating the apoptotic machinery. For example, the Cell Titer-glo assay is used which determines cell viability as a function of intracellular ATP concentration.

MCL-1 = MCL-1 (Homo sapiens, UniProt Q07820); assay: biochemical
MCL-1, sequence (Q07820 whole entry): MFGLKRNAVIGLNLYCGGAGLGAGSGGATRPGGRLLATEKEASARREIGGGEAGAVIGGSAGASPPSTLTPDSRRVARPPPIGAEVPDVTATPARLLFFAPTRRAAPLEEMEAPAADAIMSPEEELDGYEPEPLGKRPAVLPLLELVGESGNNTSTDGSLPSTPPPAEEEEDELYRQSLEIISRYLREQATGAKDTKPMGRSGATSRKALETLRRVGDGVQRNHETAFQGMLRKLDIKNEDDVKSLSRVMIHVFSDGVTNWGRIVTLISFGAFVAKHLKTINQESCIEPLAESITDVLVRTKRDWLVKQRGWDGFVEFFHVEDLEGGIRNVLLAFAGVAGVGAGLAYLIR
From the text: To assess the binding and affinity of compounds that antagonize the interaction between a peptide and an acceptor protein, a fluorescence polarization assay (FPA) utilizing a fluoresceinated peptidomimetic macrocycle derived from a peptidomimetic precursor sequence is used, for example. The FPA technique measures the molecular orientation and mobility using polarized light and fluorescent tracer. […] A compound that antagonizes the interaction between the fluoresceinated peptidomimetic macrocycle and an acceptor protein will be detected in a competitive binding FPA experiment.
Antagonist binding activity is measured, for example, by fluorescence polarization on a luminescence spectrophotometer (e.g. Perkin-Elmer LS50B). Kd values can be determined by nonlinear regression analysis using, for example, Graphpad Prism software (GraphPad Software, Inc., San Diego, Calif.).

## CCCC[C@H](NC(=O)[C@H](C)NC(=O)[C@H](C)NC(=O)[C@]1(C)CCCC=CCCCCCC[C@@](C)(NC(=O)[C@H](Cc2ccccc2)NC(=O)[C@@H](NC(=O)[C@H](CC(C)C)NC(C)=O)[C@@H](C)O)C(=O)N[C@@H](C)C(=O)N[C@@H](Cc2ccc(O)cc2)C(=O)N[C@@H](Cc2c[nH]c3ccccc23)C(=O)N[C@@H](C)C(=O)N[C@@H](CCC(N)=O)C(=O)N[C@@H](CC(C)C)C(=O)N1)C(=O)N[C@@H](C)C(N)=O [SP68]
SJSA-1 cells; 72 hr (Table 1d)
  EC50: 1.12 µM
MDM2
  IC50: 0.029 µM
[1]; aqueous solution, read-out: Solubility
  solubility: 3000 µg/mL (≈ 1690 µM)

## CC(=O)N[C@@H](CC(C)C)C(=O)N[C@H](C(=O)N[C@@H](Cc1ccccc1)C(=O)NC1(C)CCCCCCC=CCCCC(C)(C(=O)N[C@@H](C)C(=O)N[C@@H](C)C(=O)N[C@@H](C)C(=O)N[C@@H](C)C(=O)N[C@@H](C)C(=O)N[C@@H](C)C(=O)N[C@H](C)C(N)=O)NC(=O)[C@H](CC(C)C)NC(=O)[C@H](CCC(N)=O)NC(=O)[C@H](C)NC(=O)[C@H](Cc2c[nH]c3ccccc23)NC(=O)[C@H](Cc2ccc(O)cc2)NC(=O)[C@H](C)NC1=O)[C@@H](C)O (stereo partly drawn) [SP317]
[1]; read-out: Solubility
  solubility: 5000 µg/mL (≈ 2570 µM)

## CC(=O)N[C@@H](CC(C)C)C(=O)N[C@H](C(=O)N[C@@H](Cc1ccccc1)C(=O)N[C@]1(C)CCCCCCC=CCCC[C@@](C)(C(=O)N[C@@H](C)C(N)=O)NC(=O)[C@H](CC(C)C)NC(=O)[C@H](CCC(N)=O)NC(=O)[C@H](C)NC(=O)[C@H](Cc2c[nH]c3ccccc23)NC(=O)[C@H](Cc2ccc(O)cc2)NC(=O)[C@H](C)NC1=O)[C@@H](C)O [SP590, Ac-LTF$r8AYWAQL$A-NH2] (Ac-LTF[R8]AYWAQL[S5]A-NH2; staple 4-11)
SJSA-1 cells; 72 hr (Table 1d)
  EC50: 6 µM
[1]
  solubility: ≤ 1000 µg/mL

## CC(=O)N[C@@H](C(=O)N[C@H](C)C(=O)N[C@H](Cc1c[nH]c2ccccc12)C(=O)N[C@H](Cc1ccc(O)cc1)C(=O)N[C@@]1(C)CCCCCCC=CCCC[C@](C)(C(=O)N[C@H](C)C(N)=O)NC(=O)[C@@H](CC(C)C)NC(=O)[C@@H](CC(C)C)NC(=O)[C@@H](CCCCN)NC(=O)[C@@H](CCC(=O)O)NC(=O)[C@@H](Cc2ccc(C(F)(F)F)cc2)NC(=O)[C@@H](CC(N)=O)NC1=O)[C@H](C)O [SP757, Ac-tawy$s8nf4CF3ekll$r5a-NH2] (Ac-[dT][dA][dW][dY][S8][dN][dPhe(4-CF3)][dE][dK][dL][dL][R5][dA]-NH2; staple 5-12)
SJSA-1 cells; 72 hr (Table 1f)
  EC50: 1.5 µM

## CC(=O)N[C@@H](C(=O)N[C@H](C)C(=O)N[C@H](Cc1c[nH]c2ccccc12)C(=O)N[C@H](Cc1ccc(O)cc1)C(=O)N[C@H](C)C(=O)N[C@H](CC(N)=O)C(=O)N[C@H](Cc1ccccc1)C(=O)N[C@H](CCC(=O)O)C(=O)N[C@H](CCCCN)C(=O)N[C@H](CC(C)C)C(=O)N[C@H](CC(C)C)C(=O)N[C@H](CCCNC(=N)N)C(N)=O)[C@H](C)O [SP778, Ac-tawyanfekllr-NH2, reference compound] (Ac-[dT][dA][dW][dY][dA][dN][dF][dE][dK][dL][dL][dR]-NH2)
SJSA-1 cells; 72 hr (Table 1f)
  EC50: > 30 µM

## CCCC[C@H](NC(C)=O)C(=O)N[C@@H](CC(=O)O)C(=O)N[C@H](C(=O)N[C@@H](CC(N)=O)C(=O)N[C@@]1(C)CCCC=CCCC[C@@](C)(C(=O)N[C@@H](CC(C)C)C(=O)N[C@@H](C)C(=O)N[C@H](C(=O)NC(C)(C)C(=O)N[C@@H](C)C(=O)N[C@@H](CCC(N)=O)C(N)=O)C(C)C)NC(=O)[C@H](CC(C)C)NC(=O)[C@H](CC(C)C)NC(=O)[C@H]([C@@H](C)O)NC1=O)C(C)C [SP786] (Ac-[Nle]DVN[S5]TLL[S5]LAV[Aib]AQ-NH2; staple 5-9; C-terminus assumed)
[2]
  EC50: 23 µM

## CCCC[C@H](NC(C)=O)C(=O)N[C@@H](CC(=O)O)C(=O)N[C@H](C(=O)N[C@@H](CC(N)=O)C(=O)N[C@]1(C)CCCCCCC=CCCC[C@@](C)(C(=O)N[C@@H](C)C(=O)N[C@@H](C)C(=O)N[C@@H](CCC(N)=O)C(N)=O)NC(=O)[C@H](C)NC(=O)[C@H](CC(C)C)NC(=O)[C@H](Cc2ccccc2)NC(=O)[C@H](CC(C)C)NC(=O)[C@H](CC(C)C)NC(=O)[C@H]([C@@H](C)O)NC1=O)C(C)C [SP798] (Ac-[Nle]DVN[R8]TLLFLA[S5]AAQ-NH2; staple 5-12)
[2]
  EC50: 4.5 µM

## CC[C@H](C)[C@H](NC(C)=O)C(=O)N[C@@H](Cc1c[nH]c2ccccc12)C(=O)N[C@H](C(=O)N[C@@H](C)C(=O)N[C@@H](CCC(N)=O)C(=O)N[C@@H](C)C(=O)N[C@@H](CC(C)C)C(=O)N[C@@H](CCCNC(=N)N)C(=O)N[C@]1(C)CCCCCCC=CCCC[C@@](C)(C(=O)N[C@@H](Cc2ccc(O)cc2)C(=O)N[C@@H](Cc2ccc(O)cc2)C(=O)N[C@@H](C)C(=O)N[C@@H](CCCNC(=N)N)C(=O)N[C@@H](CCCNC(=N)N)C(N)=O)NC(=O)[C@H](CC(N)=O)NC(=O)[C@H](Cc2ccccc2)NC(=O)[C@H](CCC(=O)O)NC(=O)[C@H](CC(=O)O)NC(=O)CNC(=O)[C@H]([C@@H](C)CC)NC1=O)[C@@H](C)CC [SP809] (Ac-IWIAQALR[R8]IGDEFN[S5]YYARR-NH2; staple 9-16)
BCL-XL
  IC50: 0.0039 µM
Raji Cell
  EC50: > 30 µM
MCL-1
  IC50: 0.0106 µM

## CC[C@H](C)[C@H](NC(C)=O)C(=O)N[C@@H](Cc1c[nH]c2ccccc12)C(=O)N[C@H](C(=O)N[C@@H](C)C(=O)N[C@@H](CCC(N)=O)C(=O)N[C@@H](CCC(=O)O)C(=O)N[C@@H](CC(C)C)C(=O)N[C@@H](CCCNC(=N)N)C(=O)N[C@]1(C)CCCCCCC=CCCC[C@@](C)(C(=O)N[C@@H](Cc2ccc(O)cc2)C(=O)N[C@@H](Cc2ccc(O)cc2)C(=O)N[C@@H](C)C(=O)N[C@@H](CCCNC(=N)N)C(=O)N[C@@H](CCCNC(=N)N)C(N)=O)NC(=O)[C@H](CC(N)=O)NC(=O)[C@H](Cc2ccccc2)NC(=O)[C@H](CCC(=O)O)NC(=O)[C@H](CC(=O)O)NC(=O)CNC(=O)[C@H]([C@@H](C)CC)NC1=O)[C@@H](C)CC [SP810]
BCL-XL
  IC50: 0.0092 µM
Raji Cell
  EC50: > 30 µM

## CC[C@H](C)[C@H](NC(C)=O)C(=O)N[C@@H](Cc1c[nH]c2ccccc12)C(=O)N[C@H](C(=O)N[C@@H](C)C(=O)N[C@@H](CCC(N)=O)C(=O)N[C@@H](C)C(=O)N[C@@H](CC(C)C)C(=O)N[C@@H](CCCNC(=N)N)C(=O)N[C@]1(C)CCCCCCC=CCCC[C@@](C)(C(=O)N[C@@H](Cc2ccc(O)cc2)C(=O)N[C@@H](Cc2ccc(O)cc2)C(=O)N[C@@H](C)C(N)=O)NC(=O)[C@H](CC(N)=O)NC(=O)[C@H](Cc2ccccc2)NC(=O)[C@H](C)NC(=O)[C@H](CC(=O)O)NC(=O)CNC(=O)[C@H]([C@@H](C)CC)NC1=O)[C@@H](C)CC [SP815] (Ac-IWIAQALR[R8]IGDAFN[S5]YYA-NH2; staple 9-16)
BCL-XL
  IC50: 0.0224 µM
Raji Cell
  EC50: 6.6 µM
MCL-1
  IC50: 0.0084 µM

## CC[C@H](C)[C@H](NC(C)=O)C(=O)N[C@@H](Cc1c[nH]c2ccccc12)C(=O)N[C@H](C(=O)N[C@@H](C)C(=O)N[C@@H](CCC(N)=O)C(=O)N[C@@H](C)C(=O)N[C@@H](CC(C)C)C(=O)N[C@@H](CCCNC(=N)N)C(=O)N[C@]1(C)CCCCCCC=CCCC[C@@](C)(C(=O)N[C@@H](Cc2ccc(O)cc2)C(=O)N[C@@H](Cc2ccc(F)cc2)C(=O)N[C@@H](C)C(N)=O)NC(=O)[C@H](CC(N)=O)NC(=O)[C@H](Cc2ccccc2)NC(=O)[C@H](C)NC(=O)[C@H](CC(=O)O)NC(=O)CNC(=O)[C@H](CCC(C)C)NC1=O)[C@@H](C)CC [SP962] (Ac-IWIAQALR[R8][hLeu]GDAFN[S5]Y[Phe(4-F)]A-NH2; staple 9-16)
BCL-XL
  IC50: 0.013 µM
Raji Cell
  EC50: 0.7 µM
MCL-1
  IC50: 0.027 µM
